Among the data in US9296697B2, “Hetaryl-substituted guanidine compounds and use thereof as binding partners for 5-HT5-receptors” (Abbott Laboratories, priority 2005, dated 2016) are Ki values, retold here.

SMILES strings stand for the structures. pKi: −log10 of the molar value. Counter-ions that a name gives are not always drawn.

For this test, the target named is T1, h5-HT5A receptor (Homo sapiens, UniProt P47898).
T1 construct: expressed in transfected cells; membranes used
T1 sequence (P47898 whole entry): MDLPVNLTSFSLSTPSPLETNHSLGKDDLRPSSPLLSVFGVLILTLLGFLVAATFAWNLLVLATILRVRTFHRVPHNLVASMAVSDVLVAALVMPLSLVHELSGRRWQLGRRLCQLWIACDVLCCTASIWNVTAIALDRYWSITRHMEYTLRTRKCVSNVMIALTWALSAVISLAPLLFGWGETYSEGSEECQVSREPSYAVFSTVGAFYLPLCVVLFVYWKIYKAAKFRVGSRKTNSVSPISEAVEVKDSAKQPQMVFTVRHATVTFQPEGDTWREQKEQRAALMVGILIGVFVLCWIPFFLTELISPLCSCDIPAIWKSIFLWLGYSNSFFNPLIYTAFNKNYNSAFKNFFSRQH
Kind of test: h5-HT5A [3H]5-CT binding assay. Conditions: affinity for 5-HT5A; membranes of HEK293 cells expressing the h5-HT5A receptor gene, 2.5 nM [3H]5-CT. The protocol: h5-HT5A [^3H]5-CT Binding Assay
Membranes of HEK293 cells which permanently express the h5-HT5A receptor gene were incubated in 100 mM tris-HCl buffer (pH 7.7) containing 1 mM EDTA, in the presence of 2.5 nM [^3H]5-CT (total volume 600 μL). The total binding is defined as the binding that is observed when the membranes are incubated in the presence of only the radioligand. The inhibition induced by the compound is determined by incubation of cell membranes in the presence of the radioligand and various concentrations of the compound of interest. Nonspecific binding is defined as the [^3H]5-CT binding obtained by incubation of the membranes, the same as for the total binding, but in the presence of 10 μM methiothepine. Following incubation for 75 min at 30° C., the membrane suspension was filtered through a GF/B-Filter coated with 0.03% PEI, using a Skatron® harvesting system. The residual radioactivity in the filter was quantified by liquid scintillation counting.
Various concentrations of the test substances were used in both assays, and the Ki or IC50 values were determined.
The term pKi denotes −log10 of the Ki, conventionally taken in molar units. In turn, `COc1cccc(OC)c1CNC(=N)Nc1cc(Br)ccn1` [Example 44, N-(4-Bromopyridin-2-yl)-N′-(2,6-dimethoxybenzyl)guanidine] showed a pKi of more than 7.00. `COc1cccc(OC)c1CNC(=N)Nc1cccc(-c2ccccc2)n1` [Example 53, N-(2,6-Dimethoxybenzyl)-N′-(6-phenylpyridin-2-yl)guanidine acetate] showed a pKi of more than 7.00.

Consider `COc1cccc(OC)c1CNC(=N)Nc1ncccc1Br` [Example 46, N-(3-Bromopyridin-2-yl)-N′-(2,6-dimethoxybenzyl)guanidine acetate], for which the pKi was more than 7.00.

Regarding `COc1cccc(OC)c1CNC(=N)Nc1cccc(Br)n1` [Example 43, N-(6-Bromopyridin-2-yl)-N′-(2,6-dimethoxybenzyl)guanidine], the pKi is more than 7.00. Next, `COc1cccc(C)c1CNC(=N)Nc1ncccc1C` [Example 33, N-(2-Methoxy-6-methylbenzyl)-N′-(3-methylpyridin-2-yl)guanidine]: more than 7.00; `COc1cccc(OC)c1CNC(=N)Nc1cccc(C)n1` [Example 9, N-(2,6-dimethoxybenzyl)-N′-(6-methylpyridin-2-yl)guanidine]: more than 7.00. `COc1ccccc1CNC(=N)Nc1ccc(C)cn1` [Example 6, N-(2-methoxybenzyl)-N′-(5-methylpyridin-2-yl)guanidine acetate] gave a negative-log Ki (pKi) of more than 7.00.

Take `COc1cccc(C)c1CNC(=N)Nc1ccc(C#N)cn1` [Example 97, N-(5-Cyanopyridin-2-yl)-N′-(2-methoxy-6-methylbenzyl)guanidine acetate]: the pKi is more than 7.00.

As for `COc1cccc(Cl)c1CNC(=N)Nc1ncccc1C` [Example 31, N-(2-Chloro-6-methoxybenzyl)-N′-(3-methylpyridin-2-yl)guanidine], the pKi is more than 7.00. Regarding `COc1cccc(OC)c1CNC(=N)Nc1ccc(C#N)cn1` [Example 85, N-(5-Cyanopyridin-2-yl)-N′-(2,6-dimethoxybenzyl)guanidine acetate], the pKi is more than 7.00. Under `COc1cccc(OC)c1CNC(=N)Nc1cnc2ccccc2c1` [Example 17, N-(2,6-Dimethoxybenzyl)-N′-quinolin-3-yl-guanidine acetate] stands more than 7.00. `COc1cccc(OC)c1CNC(=N)Nc1ccc(-c2ccccc2)cn1` [Example 83, N-(2,6-Dimethoxybenzyl)-N′-(5-phenylpyridin-2-yl) guanidine acetate]: the pKi was more than 7.00. Consider `COc1ccccc1CNC(=N)Nc1ccccn1` [Example 1, N-(2-methoxybenzyl)-N′-pyridin-2-yl-guanidine acetate], for which the pKi was more than 7.00. Take `COc1cccc(OC)c1CNC(=N)Nc1cc(C#N)ccn1` [Example 64, N-(4-Cyanopyridin-2-yl)-N′-(2,6-dimethoxybenzyl)guanidine acetate]: the pKi was more than 7.00. Take `COc1ccccc1CNC(=N)Nc1cnc2ccccc2c1` [Example 16, N-(2-Methoxybenzyl)-N′-quinolin-3-yl-guanidine acetate]: the negative logarithm of the Ki (pKi) is more than 5.00.

As for `COc1ccccc1CNC(=N)Nc1cccc(Cc2ccccc2)n1` [Example 69, N-(6-Benzylpyridin-2-yl)-N′-(2-methoxybenzyl)guanidine acetate], the pKi was more than 7.00. Under `COc1ccccc1CNC(=N)Nc1ncccn1` [Example 36, N-(2-Methoxybenzyl)-N′-pyrimidin-2-yl-guanidine acetate] stands more than 5.00.

In turn, `COc1ccccc1CNC(=N)Nc1cc(Br)ccn1` [Example 45, N-(4-Bromopyridin-2-yl)-N′-(2-methoxybenzyl)guanidine] showed a pKi of more than 7.00. For `COc1cccc(OC)c1CNC(=N)Nc1ncccn1` [Example 37, N-(2,6-Dimethoxybenzyl)-N′-pyrimidin-2-ylguanidine], the pKi was more than 7.00.

`Cc1ccc(NC(=N)NCc2ccccc2Cl)nc1` [Example 21, N-(2-Chlorobenzyl)-N′-(5-methylpyridin-2-yl)guanidine] gave a pKi of more than 6.52.

`COc1cccc(Cl)c1CNC(=N)Nc1ccc(I)cn1` [Example 91, N-(2-Chloro-6-methoxybenzyl)-N′-(5-iodopyridin-2-yl)guanidine acetate] showed a pKi of more than 7.00. `COc1cccc(OC)c1CNC(=N)Nc1ncccc1C#N` [Example 65, N-(3-Cyanopyridin-2-yl)-N′-(2,6-dimethoxybenzyl)guanidine acetate]: the pKi is more than 5.00. `COc1cccc(F)c1CNC(=N)Nc1ncccc1C` [Example 32, N-(2-Fluoro-6-methoxybenzyl)-N′-(3-methylpyridin-2-yl)guanidine] gave a pKi of more than 7.00. On to `CC(C)Oc1ccccc1CNC(=N)Nc1cccc(C#N)n1` [Example 80, N-(6-Cyanopyridin-2-yl)-N′-(2-isopropoxybenzyl)guanidine acetate], for which the pKi was more than 7.00. `CCOc1ccccc1CNC(=N)Nc1ccc(C)cn1` [Example 22, N-(2-Ethoxybenzyl)-N′-(5-methylpyridin-2-yl)guanidine acetate] showed a pKi of more than 7.00. The compound `N#Cc1cccc(NC(=N)NCc2ccccc2OC(F)(F)F)n1` [Example 79, N-(6-Cyanopyridin-2-yl)-N′-[2-(trifluoromethoxy)benzyl]guanidine acetate] showed a pKi of more than 7.00. `COc1ccccc1CNC(=N)Nc1cccnc1` [Example 34, N-(2-Methoxybenzyl)-N′-pyridin-3-yl-guanidine acetate] showed a pKi of more than 5.00. Under `COc1ccccc1CNC(=N)Nc1cc(C#N)ccn1` [Example 66, N-(4-Cyanopyridin-2-yl)-N′-(2-methoxybenzyl)guanidine acetate] stands more than 7.00; under `COc1cccc(C)c1CNC(=N)Nc1ccc(C)cn1` [Example 19, N-(2-Methoxy-6-methylbenzyl)-N′-(5-methylpyridin-2-yl)guanidine], more than 7.00. For the compound `Cc1ccc(NC(=N)NCc2c(Cl)cccc2Oc2ccccc2)nc1` [Example 27, N-(2-Chloro-6-phenoxybenzyl)-N′-(5-methylpyridin-2-yl)guanidine acetate], the pKi was more than 7.00. As to `COc1ccccc1CNC(=N)Nc1ncc(C(F)(F)F)cc1Cl` [Example 10, N-[3-Chloro-5-(trifluoromethyl)pyridin-2-yl]-N′-(2-methoxybenzyl)guanidine acetate], the pKi was more than 5.00. The compound `CCc1ccccc1CNC(=N)Nc1ccc(C)cn1` [Example 25, N-(2-Ethylbenzyl)-N′-(5-methylpyridin-2-yl)guanidine] had a pKi of more than 6.52. `COc1ccccc1CNC(=N)Nc1cc2ccccc2cn1` [Example 38, N-Isoquinolin-3-yl-N′-(2-methoxybenzyl)guanidine] had a negative-log Ki (pKi) of more than 7.00. Regarding `COc1ccccc1CNC(=N)Nc1ccc(Cc2ccccc2)cn1` [Example 67, N-(5-Benzylpyridin-2-yl)-N′-(2-methoxybenzyl)guanidine acetate], the pKi was more than 7.00. Next, `COc1ccccc1CNC(=N)Nc1nccc(-c2cccs2)n1` [Example 14, N-(2-Methoxybenzyl)-N′-(4-(2-thienyl)pyrimidin-2-yl]guanidine acetate]: more than 5.00; `COc1cccc(OC)c1CNC(=N)Nc1cccc(-c2ccc(F)cc2)n1` [Example 54, N-(2,6-Dimethoxybenzyl)-N′-[6-(4-fluorophenyl)pyridin-2-yl]guanidine]: more than 7.00; `COc1cccc(OC)c1CNC(=N)Nc1cc(-c2ccc(F)cc2)ccn1` [Example 57, N-(2,6-Dimethoxybenzyl)-N′-[4-(4-fluorophenyl)pyridin-2-yl]guanidine acetate]: more than 7.00. The compound `COc1cccc(OC)c1CNC(=N)Nc1nccc(-c2cccs2)n1` [Example 15, N-(2,6-Dimethoxybenzyl)-N′-[4-(2-thienyl)pyrimidin-2-yl]guanidine acetate] gave a pKi of more than 7.00. Consider `CC(C)Oc1ccccc1CNC(=N)Nc1cccc(Br)n1` [Example 74, N-(6-Bromopyridin-2-yl)-N′-(2-isopropoxybenzyl)guanidine], for which the pKi was more than 7.00. Next, `COc1cccc(OC)c1CNC(=N)Nc1ccc(I)cn1` [Example 3, N-(2,6-dimethoxybenzyl)-N′-(5-iodopyridin-2-yl)guanidine]: more than 7.00; `COc1ccccc1CNC(=N)Nc1ccc(-c2ccc(C(F)(F)F)cc2)cn1` [Example 89, N-(2-Methoxybenzyl)-N′-{5-[4-(trifluoromethyl)phenyl]pyridin-2-yl}guanidine acetate]: more than 6.52; `COc1ccccc1CNC(=N)Nc1cccc(-c2ccc(OC(F)(F)F)cc2)n1` [Example 48, N-(2-Methoxybenzyl)-N′-{6-[4-(trifluoromethoxy)phenyl]pyridin-2-yl}guanidine]: more than 5.00.

In the case of `Cc1ccc(NC(=N)NCc2ccccc2Oc2ccccc2)nc1` [Example 28, N-(5-Methylpyridin-2-yl)-N′-(2-phenoxybenzyl)guanidine hydrochloride], the pKi is more than 7.00. With `COc1cccc(F)c1CNC(=N)Nc1ccc(I)cn1` [Example 92, N-(2-Fluoro-6-methoxybenzyl)-N′-(5-iodopyridin-2-yl)guanidine acetate], the pKi is more than 7.00. Take `COc1cccc(Cl)c1CNC(=N)Nc1ccc(C)cn1` [Example 18, N-(2-Chloro-6-methoxybenzyl)-N′-(5-methylpyridin-2-yl)guanidine acetate]: the pKi was more than 7.00.
